From BigSolDB 2.1

Settings: in ethanol

`CC(C)C1=CC2=CC[C@@H]3[C@](C)(CCC[C@@]3(C)C(=O)O)[C@H]2CC1` showed a solubility (mole fraction) (285.07 K) of 0.0165, a solubility (mole fraction) (288.7 K) of 0.0183 and a solubility (mole fraction) (292 K) of 0.0202. It also gave a solubility (mole fraction) (294.8 K) of 0.0219, a solubility (mole fraction) (297.05 K) of 0.0235 and a solubility (mole fraction) (299.63 K) of 0.0253. For the same molecule, the solubility (mole fraction) (301.8 K) was 0.0272, the solubility (mole fraction) (304.05 K) was 0.0291 and the solubility (mole fraction) (306.05 K) was 0.0311. It also gave a solubility (mole fraction) (308.22 K) of 0.0335, a solubility (mole fraction) (310.35 K) of 0.036 and a solubility (mole fraction) (312.35 K) of 0.0385. It also gave a solubility (mole fraction) (315.23 K) of 0.041, a solubility (mole fraction) (316.85 K) of 0.0439 and a solubility (mole fraction) (319.03 K) of 0.0467.
